Molecular target: T1, BACE1 (Homo sapiens, UniProt P56817)
T1 construct: Human HEK293 cells which are stably transfected with a vector expressing a cDNA of the human APP wt gene (APP695); endogenous in cells; host or cells: HEK293 stably transfected with human APP695 wt
Test: Cellular Aβ-lowering assay (Aβ40 ELISA)
Format: cell-based
Settings: HEK293 cells stably expressing human APP695; Aβ40 in culture supernatant; read-out: BACE1 cell act. Aβ40 IC50
In short: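 Aβ40 in supernatant measured by sandwich ELISA (TMB, 450 nm) and quantified against a pure Aβ peptide standard curve.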

T1 sequence (P56817 46-501): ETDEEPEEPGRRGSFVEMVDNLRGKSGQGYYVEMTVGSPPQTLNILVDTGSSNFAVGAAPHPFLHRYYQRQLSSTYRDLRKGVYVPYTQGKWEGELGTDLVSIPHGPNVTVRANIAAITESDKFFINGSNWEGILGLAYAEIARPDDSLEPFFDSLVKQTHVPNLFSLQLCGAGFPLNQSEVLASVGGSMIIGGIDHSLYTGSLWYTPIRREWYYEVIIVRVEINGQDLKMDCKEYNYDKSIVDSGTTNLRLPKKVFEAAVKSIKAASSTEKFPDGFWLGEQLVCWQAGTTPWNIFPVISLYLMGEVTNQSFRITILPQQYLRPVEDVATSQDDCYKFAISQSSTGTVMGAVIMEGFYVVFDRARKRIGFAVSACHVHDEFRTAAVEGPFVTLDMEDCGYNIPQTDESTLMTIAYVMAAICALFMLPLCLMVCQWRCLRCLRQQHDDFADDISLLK

Row | SMILES | IC50
1 | C[C@]1(c2cc(NC(=O)c3ncc(C(F)(F)F)cc3Cl)ccc2F)N=C(N)OCC1(F)F [Example 5, 3-Chloro-5-trifluoromethyl-pyridine-2-carboxylic acid [3-((R)-2-amino-5,5-difluoro-4-methyl-5,6-dihydro-4H-[1,3]oxazin-4-yl)-4-fluoro-phenyl]-amide] | 43 nM
2 | C[C@]1(c2cc(NC(=O)c3ncc(Cl)cc3Cl)ccc2F)N=C(N)OCC1(F)F [Example 8, 3,5-Dichloro-pyridine-2-carboxylic acid [3-((R)-2-amino-5,5-difluoro-4-methyl-5,6-dihydro-4H-[1,3]oxazin-4-yl)-4-fluoro-phenyl]-amide] | 15 nM
3 | CC1(C)OC(N)=N[C@](C)(c2cc(NC(=O)c3ncc(C(F)(F)F)cc3Cl)ccc2F)C1(F)F [Example 20, 3-Chloro-5-trifluoromethyl-pyridine-2-carboxylic acid [3-((R)-2-amino-5,5-difluoro-4,6,6-trimethyl-5,6-dihydro-4H-[1,3]oxazin-4-yl)-4-fluoro-phenyl]-amide] | 50 nM

More lines, now with the values ahead:

Row | IC50 | SMILES
4 | 7 nM | CC1(C)OC(N)=N[C@](C)(c2cc(NC(=O)c3ccc(C#N)cn3)ccc2F)C1(F)F [Example 21, 5-Cyano-pyridine-2-carboxylic acid [3-((R)-2-amino-5,5-difluoro-4,6,6-trimethyl-5,6-dihydro-4H-[1,3]oxazin-4-yl)-4-fluoro-phenyl]-amide]
5 | 7 nM | CC1(C)OC(N)=N[C@](C)(c2cc(NC(=O)c3ncc(C#N)cc3Cl)ccc2F)C1(F)F [Example 22, 3-Chloro-5-cyano-pyridine-2-carboxylic acid [3-((R)-2-amino-5,5-difluoro-4,6,6-trimethyl-5,6-dihydro-4H-[1,3]oxazin-4-yl)-4-fluoro-phenyl]-amide]

Test system: not listed separately
Test: GSH human adduct formation in vitro
Format: in vitro ADME
Parameters: key: NF = in vitro no significant adduct formation relative to control
Settings: relative to control

Row | GSH human, adduct formation | SMILES
6 | NF | C[C@]1(c2cc(NC(=O)c3ncc(C(F)(F)F)cc3Cl)ccc2F)N=C(N)OCC1(F)F [Example 5, 3-Chloro-5-trifluoromethyl-pyridine-2-carboxylic acid [3-((R)-2-amino-5,5-difluoro-4-methyl-5,6-dihydro-4H-[1,3]oxazin-4-yl)-4-fluoro-phenyl]-amide]

Source: patent US8389513B2, “2-amino-5,5-difluoro-5,6-dihydro-4H-[1,3]oxazin-4-yl)-phenyl]-amides” (Hoffmann-La Roche Inc., priority 2009, dated 2013)
